Test results taken from US9029451B2, “Waterborne coating compositions that include 2,2,4-trimethyl-3-oxopentanoate esters as reactive coalescents” (Eastman Chemical Company, priority 2010, dated 2015).
Read-outs that look alike come from different tables or passages of the source.

Columns and labels:
[1] = Boiling point of coalescent; type: physicochemical
Protocol: The novel compounds were evaluated for their coalescing properties and compared to 2,2,4-trimethylpentane-1,3-diol monoisobutyrate (Texanol) and Optifilm Enhancer 400 (OE 400), two coalescents that are widely used in industry (Table 2).

[2] = % non-volatile, 110° C. for 1 hour (ASTM D2369); type: physicochemical
Protocol: 2,2,4-trimethyl-3-oxopentanoate esters useful as reactive coalescents according to the invention include those having a weight percent volatile content of less than 50%, as measured according to ASTM Method D2369. This test may be conducted generally by heating the sample in a forced air oven at 110° C. for 60 minutes. The weight loss after the test is deemed to result from a loss of volatiles originally present in the sample; the percent volatile present in the original sample may then be calculated. Although the cited test can be conducted on coating compositions containing other components such as latex polymers, the values cited herein may be obtained from a sample of the coalescent itself. Thus, the weight percent volatile of a coalescent may be used herein as a yardstick to measure the amount of VOC the coalescent would contribute to the VOC of a coating composition.

Density, ASTM D 1475-98 = type: physicochemical
[3] = Water miscibility, % water in solvent method (Karl Fischer); type: physicochemical; conditions: stirred approx. 48 hours
Protocol: (§1) Water miscibility was measured by the following methods:
% Water in Solvent Method:
Approximately 5-10 mL of the novel coalescent was slowly added to 10-15 mL Milli-Q water in an 8-dram vial. The mixture was slowly stirred for approximately 48 hours at 100-150 rpm. The organic layer was analyzed in triplicate for percent water by Karl Fischer methodology.

[4] = Water miscibility, % organic in water method (gravimetric); type: physicochemical; conditions: saturation point
Protocol: as §1
% Organic in Water Method:
The novel coalescent was added drop wise to 25 mL Milli-Q water and the mixture stirred at 1000 rpm for 10 minutes. If the coalescent dissolved, an additional drop or drops were added until traces of the organic solvent remained after the mixture had been stirred for 20 minutes. The percent organic solvent at the saturation point was determined gravimetrically.

[5] = Hydrolytic stability in latex at 120° F., pH and Brookfield viscosity; type: physicochemical
Protocol: Approximately 100 grams of either Rhoplex AC 2508 (Rohm & Haas acrylic polymer emulsion) or Rhoplex SG-10M (Rohm & Haas acrylic polymer emulsion) was weighed out into a 4 ounce jar and 10 phr (parts per hundred resin) of the coalescing aid was added (based on percent solids of the emulsion by weight). The sample was placed on lab rollers for 24 hours before the initial pH and viscosity was taken. The viscosity was measured by a Brookfield viscometer in centipoises. The sample was then placed into a lab oven at 120° F. The pH and viscosity was checked weekly for four weeks (Tables 3 & 4). Any change in the appearance of the sample such as gel particles or phase separation was recorded weekly also.

[6] = MFFT testing, coalescing efficiency
Protocol: The MFFT samples were prepared by weighing out 20 grams (+/−0.01 g) of emulsion into 50 ml beakers. The beakers of emulsion were placed on magnetic stirrers and the coalescing aid added dropwise by pipet. The weight of the drops were determined by adding 40 drops of the coalescing aid to a tared weighing dish, then the weight per drop was calculated by taking an average of the total weight (total weight divided by 40 drops). The coalescing aid was added to the emulsion based on solids by weight. The MFFT samples were allowed to stir for approximately 15 minutes, transferred to 8 dram vials and placed onto lab rollers and allowed to equilibrate for at least 24 hours. The samples were then drawn down on the MFFT bar, which is typically set on range #2 (0° to 18° C.), and the films allowed to dry. The areas in which the films have stopped cracking are visually determined and the MFFT value is read from the scale on the instrument and converted to degrees Fahrenheit. Linear Regression was used to calculate the amount of coalescing aid required to lower the films MFFT to 40° F. In Table #5, the phr40 values (parts per hundred resin based on solids by weight) are the amount of coalescing aid required to reduce the MFFT to 40° F. A lower number indicates the coalescent is more efficient at reducing the MFFT of the film.

[7] = Rhoplex AC 2508, 10 phr coalescent, Initial
[8] = Rhoplex AC 2508, 10 phr, 120° F., 1 week
[9] = Rhoplex AC 2508, 10 phr, 120° F., 2 weeks
[10] = Rhoplex AC 2508, 10 phr, 120° F., 3 weeks
[11] = Rhoplex AC 2508, 10 phr, 120° F., 4 weeks
[12] = Rhoplex SG-10M, 10 phr coalescent, Initial
[13] = Rhoplex SG-10M, 10 phr, 120° F., 1 week
[14] = Rhoplex SG-10M, 10 phr, 120° F., 2 weeks
[15] = Rhoplex SG-10M, 10 phr, 120° F., 3 weeks
[16] = Rhoplex SG-10M, 10 phr, 120° F., 4 weeks
[17] = latex Acronal 296D, linear regression
[18] = latex Rhoplex HG-74P, linear regression
[19] = latex Rhoplex SG-10M, linear regression
[20] = latex Ucar 379G, linear regression
[21] = latex Ucar 626, linear regression
[22] = Rhoplex AC 2508, compared with industry standards
[23] = Rhoplex SG-10M, compared with industry standards

Compound	% non-volatile @ 110° C. for 1 hour [2] [%]	Density (lbs/gal) (Density, ASTM D 1475-98)	Water Miscibility % water in solvent layer [3] [%]	Water Miscibility % solvent in water layer [4] [%]	Viscosity (cps) [5, 7] [cps]	pH [5, 7]	Viscosity (cps) [5, 8] [cps]	pH [5, 8]	Viscosity (cps) [5, 9] [cps]	pH [5, 9]	Viscosity (cps) [5, 10] [cps]	pH [5, 10]	Viscosity (cps) [5, 11] [cps]	pH [5, 11]	phr of Coalescent required to lower MFFT to 40° F. [6, 17] [phr]	phr of Coalescent required to lower MFFT to 40° F. [6, 18] [phr]	phr of Coalescent required to lower MFFT to 40° F. [6, 19] [phr]	phr of Coalescent required to lower MFFT to 40° F. [6, 20] [phr]	phr of Coalescent required to lower MFFT to 40° F. [6, 21] [phr]	Boiling Point (° C. @ 760 torr) [1] [°C]	also measured
2,2,4-trimethylpentane-1,3-diol monoisobutyrate [Texanol, reference compound]	0.0	7.92	3.0	0.1	905	8.2	685	7.9	665	8.0	631	7.8	638	7.9	4.7	8.3	4.6	0.1	6.2	–	Boiling Point (° C. @ 760 torr) ([1]; @ 760 torr): 255.0 °C; Viscosity (cps) [5, 12]: 544 cps; pH [5, 12]: 8.7; Viscosity (cps) [5, 13]: 554 cps; pH [5, 13]: 8.5; Viscosity (cps) [5, 14]: 484 cps; pH [5, 14]: 8.8; Viscosity (cps) [5, 15]: 474 cps; pH [5, 15]: 8.6; Viscosity (cps) [5, 16]: 471 cps; pH [5, 16]: 8.3
CC(C)C(=O)C(C)(C)C(=O)OCCO [Example 1, 2-Hydroxyethyl 2,2,4-trimethyl-3-oxopentanoate]	10.6	8.75	7.6	5.0	1430	8.3	1360	7.7	1150	7.7	1060	7.6	1070	7.4	4.2	8.2	4.7	1.5	6.5	254.8	–
CC(C)C(=O)C(C)(C)C(=O)OCC(C)(C)CO [Example 2, 3-Hydroxy-2,2-dimethylpropyl 2,2,4-trimethyl-3-oxopentanoate]	47.9	8.34	4.0	0.09	1510	8.5	1260	8.4	1230	8.4	1220	8.3	1130	8.3	5.9	8.8	5.6	1.6	6.4	291.2	hydrolytic stability, in words [5, 22]: better than the industry standards
CC(C)C(=O)C(C)(C)C(=O)OCC(C)(C)C(O)C(C)C (centres unmarked) [Example 3, 3-Hydroxy-2,2,4-trimethylpentyl 2,2,4-trimethyl-3-oxopentanoate]	63.8	8.13	2.1	0.07	1430	8.5	1300	8.4	1290	8.4	1250	8.4	1130	8.3	6.0	9.7	5.6	1.3	8.2	287.7	hydrolytic stability, in words [5, 22]: better than the industry standards
CC(C)C(=O)C(C)(C)C(=O)OCCOCCOCCOC(=O)C(C)(C)C(=O)C(C)C [Example 4]	99.0	8.82	0.01	0.09	1380	8.4	1200	8.3	1210	8.2	1150	8.3	1100	8.2	5.8	9.1	6.7	1.3	7.0	320.0	volatility, in words ([2]; compared with Texanol): almost completely nonvolatile; hydrolytic stability, in words [5, 22]: better than the industry standards
CCCCOCCOCCOC(=O)C(C)(C)C(=O)C(C)C [Example 5, 2-(2-Butoxyethoxy)ethyl 2,2,4-trimethyl-3-oxopentanoate]	64.0	8.02	0.40	0.02	–	–	–	–	–	–	–	–	–	–	4.2	–	4.6	0.9	–	272.1	Viscosity (cps) [5, 12]: 548 cps; pH [5, 12]: 8.6; Viscosity (cps) [5, 13]: 631 cps; pH [5, 13]: 8.3; Viscosity (cps) [5, 14]: 461 cps; pH [5, 14]: 8.7; Viscosity (cps) [5, 15]: 458 cps; pH [5, 15]: 8.6; Viscosity (cps) [5, 16]: 511 cps; pH [5, 16]: 8.2; hydrolytic stability, in words [5, 23]: better than the industry standards
CCCCC(CC)COCCOC(=O)C(C)(C)C(=O)C(C)C (centres unmarked) [Example 6, 2-(2-Ethylhexyloxy)ethyl 2,2,4-trimethyl-3-oxopentanoate]	58.7	7.80	0.03	0.00	–	–	–	–	–	–	–	–	–	–	5.0	–	4.0	1.3	–	281.6	Viscosity (cps) [5, 12]: 474 cps; pH [5, 12]: 8.6; Viscosity (cps) [5, 13]: 585 cps; pH [5, 13]: 8.4; Viscosity (cps) [5, 14]: 484 cps; pH [5, 14]: 8.8; Viscosity (cps) [5, 15]: 347 cps; pH [5, 15]: 8.8; Viscosity (cps) [5, 16]: 461 cps; pH [5, 16]: 8.4; hydrolytic stability, in words [5, 23]: better than the industry standards
